According to patent US20250064789A1, “KETOAMIDE DERIVATIVES AND PHARMACEUTICAL USES THEREOF” (priority 2022, published 2025):
Like-named read-outs stand apart in the source and are kept apart here.

Molecular target: recombinant SARS-CoV-2 M^pro (Severe acute respiratory syndrome coronavirus 2 (2019-nCoV) (SARS-CoV-2), UniProt P0DTD1)
Assay: Inhibition of SARS-CoV-2 M^pro enzyme activity (fluorescent substrate assay)
Format: biochemical
Settings: inhibition of SARS-CoV-2 M^pro enzyme activity, read-out: IC50

| Compound | IC50 (values in nM) [nM] | IC50 (values given in μM) [nM] |
| --- | --- | --- |
| O=C(NCc1nccs1)C(=O)[C@@H](Cc1ccccc1)NC(=O)n1nc(C(F)(F)F)cc1-c1ccc(F)cc1 [Compound 531] | 598 ± 2.8 |  |
| COc1ccc(OC(C)C(=O)N[C@H](C)C(=O)N[C@H](Cc2ccccc2)C(=O)C(=O)NCc2ccccn2)cc1 (stereo partly drawn) [Compound 87] | 42.1 ± 1 |  |
| N#Cc1ccc(OCC(=O)NC2(C(=O)N[C@H](Cc3ccccc3)C(=O)C(=O)NCc3ccccn3)CCC2)cc1 [Compound 208] | 37.1 ± 1.7 |  |
| C[C@@H](NC(=O)C(C)(C)Sc1ccc(Cl)cc1Cl)C(=O)N[C@H](Cc1ccccc1)C(=O)C(=O)NCc1ccccn1 [Compound 95] | 8.2 ± 1.1 |  |
| O=C(CC1CC(F)(F)C1)NC1(C(=O)N[C@H](Cc2ccccc2)C(=O)C(=O)NCc2nccs2)CC(F)(F)C1 [Compound 547] | 25.1 ± 1 |  |
| C[C@@H](NC(=O)COc1ccc(OC(F)(F)F)cc1)C(=O)N[C@H](Cc1ccccc1)C(=O)C(=O)NCc1ccccn1 [Compound 69] | 17.7 ± 1.5 |  |
| O=C(Cn1cc(-c2cccc(OC(F)(F)F)c2)cn1)N[C@H](Cc1ccccc1)C(=O)C(=O)NCc1nccs1 [Compound 494] | 82.5 ± 3.7 |  |
| O=C(NCc1nccs1)C(=O)[C@@H](Cc1ccccc1)NC(=O)[C@H](NC(=O)C1CCC(F)(F)CC1)C1CC1 [Compound 543] | 107 ± 1.3 |  |
| C[C@@H](NC(=O)OCc1ccccc1)C(=O)N[C@H](Cc1ccccc1)C(=O)C(=O)NCc1ccccn1 [Compound 316] | 15.9 ± 0.4 |  |
| O=C(CNC(=O)C1CCC(F)(F)CC1)N[C@H](Cc1ccc(Cl)cc1Cl)C(=O)C(=O)NCc1ccccn1 [Compound 451] | 34.4 ± 1.8 |  |
| CC(C)(OCc1ccc(Cl)cc1)C(=O)N[C@H](Cc1ccccc1)C(=O)C(=O)NCc1ccccn1 [Compound 18] | 13.7 ± 2 |  |
| O=C(NCc1ccccn1)C(=O)[C@@H](Cc1ccccc1)NC(=O)[C@H]1CC(F)CN1C(=O)C1CCC(F)(F)CC1 (stereo partly drawn) [Compound 278] | 33.7 ± 0.5 |  |
| C[C@@H](NC(=O)c1cccc(OC(F)(F)F)c1)C(=O)N[C@H](Cc1ccccc1)C(=O)C(=O)NCc1ccccn1 [Compound 143] | 16.4 ± 1.5 |  |
| O=C(NCc1nccs1)C(=O)[C@@H](Cc1ccccc1)NC(=O)c1ccccc1 [Compound 454] |  | 1300 ± 70 |
| C[C@@H](NC(=O)COC(F)(F)F)C(=O)N[C@H](Cc1ccccc1)C(=O)C(=O)NCc1ccccn1 [Compound 80] | 58.6 ± 3.2 |  |
| CC[C@@H](NC(=O)C1CCC(F)(F)CC1)C(=O)N[C@H](Cc1ccccc1)C(=O)C(=O)NCc1nccs1 [Compound 535] | 35.7 ± 0.17 |  |
| O=C(NCc1ccccn1)C(=O)[C@@H](Cc1ccccc1)NC(=O)C1(NC(=O)c2ccc(F)cc2)CC1 [Compound 170] | 19.4 ± 0.7 |  |
| O=C(N[C@H](C1CC1)C(F)(F)F)NC1(C(=O)N[C@H](Cc2ccccc2)C(=O)C(=O)NCc2ccccn2)CCC1 [Compound 307] | 26 ± 2.1 |  |
| C[C@@H](NC(=O)C1Cc2ccccc2O1)C(=O)N[C@H](Cc1ccccc1)C(=O)C(=O)NCc1ccccn1 (stereo partly drawn) [Compound 102] | 26.6 ± 0.4 |  |
| O=C(COC1CCCC1)NC1(C(=O)N[C@H](Cc2ccccc2)C(=O)C(=O)NCc2ccccn2)CCC1 [Compound 207] | 46.1 ± 0.9 |  |
| Cc1nn(CC(=O)N[C@H](Cc2ccccc2)C(=O)C(=O)NCc2nccs2)c(C)c1C1CCC(F)(F)CC1 [Compound 509] | 151 ± 6.6 |  |

| Compound | IC50 (values in nM) [nM] | IC50 (values given in μM) [nM] |
| --- | --- | --- |
| O=C(NCc1ccccn1)C(=O)[C@@H](Cc1ccccc1)NC(=O)[C@H]1COCCN1C(=O)C1(F)CCCCC1 [Compound 294] | 14.5 ± 0.2 |  |
| C[C@@H](NC(=O)C1CCC(F)(F)CC1)C(=O)N[C@H](Cc1ccco1)C(=O)C(=O)NCc1nccs1 [Compound 367] | 105 ± 10.5 |  |
| COc1ccc(CC(=O)N[C@H](C)C(=O)N[C@H](Cc2ccccc2)C(=O)C(=O)NCc2ccccn2)cc1 [Compound 77] | 24.1 |  |
| COC[C@@H](NC(=O)C1CCC(F)(F)CC1)C(=O)N[C@H](Cc1ccccc1)C(=O)C(=O)NCc1cscn1 [Compound 431] | 233.7 ± 1.8 |  |
| O=C(NCc1ccccn1)C(=O)[C@@H](Cc1ccccc1)NC(=O)C1(NC(=O)C23CC4CC(CC(O)(C4)C2)C3)CCC1 [Compound 199] | 52.7 ± 1 |  |
| O=C(NCc1nccs1)C(=O)[C@@H](Cc1cccc(Cl)c1)NC(=O)c1ccccc1 [Compound 469] |  | 1430 ± 150 |
| C[C@@H](NC(=O)Cc1cc2ccccc2o1)C(=O)N[C@H](Cc1ccccc1)C(=O)C(=O)NCc1ccccn1 [Compound 62] | 27.8 ± 0.9 |  |
| O=C(NCc1nccs1)C(=O)[C@@H](Cc1ccccc1)NC(=O)[C@H]1CC(F)(F)CN1C(=O)C1CCC(F)(F)C1 (stereo partly drawn) [Compound 404] | 47.7 ± 1 |  |
| CNC(=O)C[C@@H](NC(=O)CC1CC(F)(F)C1)C(=O)N[C@H](Cc1ccccc1)C(=O)C(=O)NCc1nccs1 [Compound 575] | 23.5 ± 0.9 |  |
| CC(C)(C(=O)N[C@H](Cc1ccccc1)C(=O)C(=O)NCc1nccs1)n1cc(-c2cccc(OC(F)(F)F)c2)cn1 [Compound 529] | 224.5 ± 1.3 |  |
| C[C@@H](NC(=O)CC1CC(F)(F)C1)C(=O)N[C@H](Cc1ccccc1)C(=O)C(=O)NCc1ccccn1 [Compound 134] | 24.5 |  |
| C[C@@H](NC(=O)C1CCC(F)(F)CC1)C(=O)N[C@H](Cc1cccc(F)c1)C(=O)C(=O)NCc1ccccn1 [Compound 360] | 31 ± 3.9 |  |
| C[C@@H](NC(=O)CC1CCC(F)(F)CC1)C(=O)N[C@H](Cc1ccccc1)C(=O)C(=O)NCc1nccs1 [Compound 373] | 16 ± 0.8 |  |
| O=C(NCc1ccccn1)C(=O)[C@@H](Cc1ccccc1)NC(=O)[C@H]1CCCCN1C(=O)[C@@H]1C[C@@H]2[C@H](C1)C2(F)F [Compound 286] | 16.3 ± 1.5 |  |
| CC[C@@H](NC(=O)c1ccc(F)cc1)C(=O)N[C@H](Cc1ccccc1)C(=O)C(=O)NCc1ccccn1 [Compound 246] | 23.6 ± 0.3 |  |
| CC(C)[C@@H](NC(=O)C1CCC(F)(F)CC1)C(=O)N[C@H](Cc1ccccc1)C(=O)C(=O)NCc1nccs1 [Compound 536] | 24.8 ± 0.3 |  |
| C[C@@H](NC(=O)c1cccnc1)C(=O)N[C@H](Cc1ccccc1)C(=O)C(=O)NCc1ccccn1 [Compound 142] |  | 1210 ± 890 |
| CC(C)(C(=O)NC1CCC(F)(F)CC1)C(=O)N[C@H](Cc1ccccc1)C(=O)C(=O)NCc1ccccn1 [Compound 323] | 30.7 ± 1.9 |  |
| C[C@@H](NC(=O)C1CCC(F)(F)CC1)C(=O)N[C@H](Cc1ccccc1)C(=O)C(=O)NCc1nccn1C [Compound 347] |  | > 2500 |
| O=C(NCc1ccccn1)C(=O)[C@@H](Cc1ccccc1)NC(=O)[C@@H]1CCCN1C(=O)[C@@H](NC(=O)c1cnccn1)C1CCCCC1 [Compound 280] | 13.2 ± 1.2 |  |
| O=C(NCc1ccccn1)C(=O)[C@@H](Cc1ccccc1)NC(=O)[C@H]1CCCCN1C(=O)C1CCC(F)(F)CC1 [Compound 282] | 13.4 ± 0.4 |  |

| Compound | IC50 (values in nM) [nM] | IC50 (values given in μM) [nM] |
| --- | --- | --- |
| CN(OCc1ccccc1)C(=O)N[C@H](Cc1ccccc1)C(=O)C(=O)NCc1ccccn1 [Compound 58, (R)-3-(3-(benzyloxy)-3-methylureido)-2-oxo-4-phenyl-N-(pyridin-2-ylmethyl)butyramide] | 100.9 ± 0.1 |  |
| N#Cc1cc(F)cc(-c2nc(CC(=O)N[C@H](Cc3ccccc3)C(=O)C(=O)NCc3nccs3)cs2)c1 [Compound 514] | 56.8 ± 0.4 |  |
| CC(C)(NC(=O)[C@H]1CC[C@@H](F)CC1)C(=O)N[C@H](Cc1ccccc1)C(=O)C(=O)NCc1ccccn1 [Compound 175] | 47.3 ± 2.8 |  |
| C[C@@H](NC(=O)C1CCC(F)(F)CC1)C(=O)N[C@H](Cc1ccccc1)C(=O)C(=O)NCc1ccncn1 [Compound 338] | 20 ± 0.8 |  |
| O=C(NCc1ccccn1)C(=O)[C@@H](Cc1ccccc1)NC(=O)C1(NC(=O)C2CCCC(F)(F)C2)CCC1 (stereo partly drawn) [Compound 193] | 16.7 ± 0.4 |  |
| CN(CC(=O)N[C@H](Cc1ccccc1)C(=O)C(=O)NCc1ccccn1)C(=O)C1CCC(F)(F)CC1 [Compound 156] | 33.4 ± 0.9 |  |
| C[C@@H](OCc1ccccc1F)C(=O)N[C@H](Cc1ccccc1)C(=O)C(=O)NCc1ccccn1 [Compound 6] | 48.3 ± 1.2 |  |
| O=C(NCc1cscn1)C(=O)[C@@H](Cc1ccccc1)NC(=O)[C@H]1COCCN1C(=O)C1CCC(F)(F)CC1 [Compound 438] | 23.4 ± 1.8 |  |
| O=C(NCc1ccccn1)C(=O)[C@@H](Cc1ccccc1)NC(=O)C1(NC(=O)C2CCC(F)(F)CC2)COC1 [Compound 234] | 18.8 ± 2.7 |  |
| O=C(CNC(=O)c1ccc(F)cc1)N[C@H](Cc1ccccc1)C(=O)C(=O)NCc1nccs1 [Compound 483] | 338.4 ± 3 |  |
| O=C(NCc1ccccn1)C(=O)[C@@H](Cc1ccccc1)NC(=O)C1(NC(=O)C2CC23CCC(F)(F)CC3)CC1 (stereo partly drawn) [Compound 166] | 23.3 ± 0.8 |  |
| COC[C@@H](NC(=O)C1CCCC(F)(F)C1)C(=O)N[C@H](Cc1ccccc1)C(=O)C(=O)NCc1cocn1 (stereo partly drawn) [Compound 560] | 22.1 ± 0.7 |  |
| O=C(NCc1nccs1)C(=O)[C@@H](Cc1ccccc1)NC(=O)C1(NC(=O)C2CCC(F)(F)CC2)CC1 [Compound 538] | 33.5 ± 1.5 |  |
| C=C[C@@H]1C[C@]1(NC(=O)C1CCC(F)(F)CC1)C(=O)N[C@H](Cc1ccccc1)C(=O)C(=O)NCc1ccccn1 [Compound 229] | 33.8 ± 1 |  |
| O=C(NCc1ccccn1)C(=O)[C@@H](Cc1ccccc1)NC(=O)[C@@H]1[C@H]2CC[C@H](C2)N1C(=O)C1CCC(F)(F)CC1 [Compound 270] |  | > 2500 |
| O=C(Cc1csc(C2CCC(F)(F)CC2)n1)N[C@H](Cc1ccccc1)C(=O)C(=O)NCc1nccs1 [Compound 511, (R)-3-(2-(2-(4,4-difluorocyclohexyl)thiazole-4-yl)acetamido)-2-oxo-4-phenyl-N-(thiazole-2-ylmethyl)butyramide] | 30.4 ± 2.1 |  |
| O=C(NCc1nccs1)C(=O)[C@@H](Cc1ccccc1)NC(=O)[C@@H](CO)NC(=O)C1CCCC(F)(F)C1 (stereo partly drawn) [Compound 567] | 63.6 ± 2.9 |  |
| C[C@@H](OCc1ccccc1)C(=O)N[C@H](Cc1ccccc1)C(=O)C(=O)NCc1ccc(Cl)cn1 [Compound 36] | 30.9 ± 0.2 |  |
| O=C(NCc1ccccn1)C(=O)[C@@H](Cc1ccccc1)NC(=O)[C@@H](CC1CCCCC1)NC(=O)C1CCC(F)(F)CC1 [Compound 220] | 13.9 ± 0.1 |  |
| C[C@@H](NC(=O)C1CCC(F)(F)CC1)C(=O)N[C@H](CC1CCCCC1)C(=O)C(=O)NCc1ccccn1 [Compound 365] | 23.1 ± 1 |  |
| O=C(NCc1ccccn1)C(=O)[C@@H](Cc1ccccc1)NC(=O)[C@H]1CC(F)(F)CN1C(=O)C1(F)CCCCC1 [Compound 277] | 30.7 ± 0.6 |  |
